Molecules are shown by their SMILES.

The target in this assay is T1, GLP-1 Receptor (Homo sapiens, UniProt P43220).
T1 construct: host or cells: HEK293/CRE-Luc
T1 sequence (P43220 24-463): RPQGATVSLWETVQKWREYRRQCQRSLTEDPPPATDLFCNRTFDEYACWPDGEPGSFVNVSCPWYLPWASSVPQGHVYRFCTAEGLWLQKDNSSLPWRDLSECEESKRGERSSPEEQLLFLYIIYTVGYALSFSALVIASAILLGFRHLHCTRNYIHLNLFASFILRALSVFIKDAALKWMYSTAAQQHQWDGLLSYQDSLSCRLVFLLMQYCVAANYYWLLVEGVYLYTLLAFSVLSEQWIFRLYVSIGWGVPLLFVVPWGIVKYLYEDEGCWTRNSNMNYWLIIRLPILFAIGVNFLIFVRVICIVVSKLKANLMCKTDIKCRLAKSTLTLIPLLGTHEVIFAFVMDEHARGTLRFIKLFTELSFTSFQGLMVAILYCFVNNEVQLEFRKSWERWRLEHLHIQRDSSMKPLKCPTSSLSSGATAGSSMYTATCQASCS
The assay can be described thus: GLP-1R agonist cAMP stimulation assay. To be noted: HEK293/CRE-Luc cell line stably expressing the GLP-1 Receptor; 30 min at 37° C.; cAMP dynamic 2 Kit. It is filed as cell-based. As to the method: Activation of GLP-1 receptor is known to stimulate cyclic AMP (cAMP) production in cells which indicates primary coupling to the Gas subunit of the G protein heterotrimeric complex.
To optimize functional activity directed toward Gas coupling, a HEK293/CRE-Luc cell line developed by HDB stably expressing the GLP-1 Receptor was used. 200× concentration of compound working solutions were prepared (Agilent Technologies Bravo) with ½ log serial dilution in 384-well Echo LDV plate (Labcyte, Cat #LP-0200). 50 nL/well 200× concentration of compound working solutions were moved to 384-well white low volume plate (Greiner, Cat #784075) using Labcyte ECHO550. 1×10^5 cells/mL HEK293/GLPlR/CRE-LUC (HD Biosciences) cell suspensions prepared with assay buffer [DPBS containing 0.5 mM IBMX (Sigma, Cat #15879) and 0.1% BSA (GENVIEW, Cat #FA016-100g)], 10 μL cell suspensions were added to each well of previous generated assay plate which already contains 50 nL compound at 200× concentration using ThermoFisher Multidrop Combi (1000 cells/well). Seal the plate and incubate at 37° C. with 5% CO2 for 30 min.
After incubation the cAMP assay signal was generated using cAMP dynamic 2 Kit (Cisbio). 5 μL cAMP-d2 working solution was added to each well, followed with 5 μL Anti-cAMP antibody-cryptate working solution added to each well using ThermoFisher Multidrop Combi. Incubate at room temperature for 1 hour protected from light. Read the fluorescence at 665 and 615 nm with Reader PerkinElmer EnVision.
% Activity=100%×(mean RLU of test sample mean RLU of vehicle control)/(mean RLU of MAX control−mean RLU of vehicle control))
In general, EC50 refers to the concentration giving half of the maximal effect. Regarding `C[C@]1(c2ccc(Cl)cn2)Oc2cccc(C3CCN(Cc4ncc(-c5nnc(C(F)(F)F)[nH]5)cc4CC4(C#N)CC4)CC3F)c2O1` (single isomer, unassigned) [Example 25], the half-maximal effective concentration (EC50) is less than 1 nM.

The compound `Cc1ccc(C2(C)Oc3cccc(C4CCN(Cc5ncc(-c6nnc(C(F)(F)F)[nH]6)cc5CC5(C#N)CC5)CC4)c3O2)c(Cl)c1` (stereo not shown) [Example 6, 1-((2-((4-(2-(2-Chloro-4-methylphenyl)-2-methylbenzo[d][1,3]dioxol-4-yl)piperidin-1-yl)methyl)-5-(5-(trifluoromethyl)-4H-1,2,4-triazol-3-yl)pyridin-3-yl)methyl)cyclopropane-1-carbonitrile] returned a half-maximal effective concentration (EC50) of less than 1 nM.

`C[C@]1(c2ccc(Cl)cn2)Oc2cccc(C3CCN(Cc4ncc(-c5noc(=O)[nH]5)cc4CC4(C#N)CC4)CC3)c2O1` [Example 77] had an EC50 of less than 1 nM.

As for `CC1(c2ccc(Cl)cc2F)Oc2cccc(C3CCN(Cc4ncc(-c5nnc(C(F)(F)F)[nH]5)cc4CC4(C#N)CC4)CC3O)c2O1` (single isomer, unassigned) [Example 24, 1-[(2-{[(3,4-trans)-4-[2-(4-chloro-2-fluorophenyl)-2-methyl-2H-1,3-benzodioxol-4-yl]-3-hydroxypiperidin-1-yl]methyl}-5-[5-(trifluoromethyl)-4H-1,2,4-triazol-3-yl]pyridin-3-yl)methyl]cyclopropane-1-carbonitrile], the concentration for a half-maximal effect (EC50) is less than 1 nM.

Turning to `C[C@H]1CN(c2ccc(F)c(OCc3ccc(Cl)cc3F)c2)CCN1Cc1ncc(-c2nnc(C(F)(F)F)[nH]2)cc1CC1(C#N)CC1` [Example 43, 1-[(2-{[(2S)-4-{3-[(4-chloro-2-fluorophenyl)methoxy]-4-fluorophenyl}-2-methylpiperazin-1-yl]methyl}-5-[5-(trifluoromethyl)-4H-1,2,4-triazol-3-yl]pyridin-3-yl)methyl]cyclopropane-1-carbonitrile], the concentration for a half-maximal effect (EC50) was less than 1 nM.

For the compound `N#CC1(Cc2cc(-c3nnc(C(F)(F)F)[nH]3)cnc2CN2CCN(c3ccnc(OCc4ccc(Cl)cc4F)n3)CC2)CC1` [Example 83], the EC50 fell in the range of 1 to 100 nM.

In turn, `N#CC1(Cc2cc(-c3nnc(C(F)(F)F)[nH]3)cnc2CN2CCC(c3cccc(OCc4ccc(Cl)c5ccoc45)n3)CC2)CC1` [Example 64, 1-((2-((4-(6-((4-chlorobenzofuran-7-yl)methoxy)pyridin-2-yl)piperidin-1-yl)methyl)-5-(5-(trifluoromethyl)-4H-1,2,4-triazol-3-yl)pyridin-3-yl)methyl)cyclopropane-1-carbonitrile] gave an EC50 of less than 1 nM.

For `Cc1cc(-c2nnc(C(F)(F)F)[nH]2)cnc1CN1CCC(c2cccc(OCc3ccc(Cl)cc3F)n2)CC1` [Example 90], the EC50 lay in the range of 1 to 100 nM.

Compound `N#CC1(Cc2cc(-c3nnc(C(F)(F)F)[nH]3)cnc2CN2CCC(c3ccc(F)c(OCc4ccc(Cl)cc4F)n3)CC2)CC1` [Example 33, 1-((2-((4-(6-((4-chloro-2-fluorobenzyl)oxy)-5-fluoropyridin-2-yl)piperidin-1-yl)methyl)-5-(5-(trifluoromethyl)-4H-1,2,4-triazol-3-yl)pyridin-3-yl)methyl)cyclopropane-1-carbonitrile] came in with an EC50 of less than 1 nM.

Turning to `C[C@]1(c2ccc(Cl)cc2F)Oc2cccc(C3CCN(Cc4ncc(-c5nnc(C(F)(F)F)[nH]5)nc4CC4(C#N)CC4)CC3)c2O1` [Example 62, 1-{[3-({4-[(2S)-2-(4-chloro-2-fluorophenyl)-2-methyl-2H-1,3-benzodioxol-4-yl]piperidin-1-yl}methyl)-6-[5-(trifluoromethyl)-4H-1,2,4-triazol-3-yl]pyrazin-2-yl]methyl}cyclopropane-1-carbonitrile], the EC50 was less than 1 nM.

`C[C@]1(c2ccc(Cl)cc2F)Oc2cccc(C3CCN(Cc4ncc(-c5noc(=O)[nH]5)cc4CC4(C#N)CC4)CC3)c2O1` [Example 73] displayed an EC50 of less than 1 nM.

`N#CC1(Cc2cc(-c3nnc(C(F)(F)F)[nH]3)cnc2CN2CCC(c3cccc(OCc4ccc(Cl)cc4F)n3)CC2)CC1` [Example 32, 1-({2-[(4-{6-[(4-chloro-2-fluorophenyl)methoxy]pyridin-2-yl}piperidin-1-yl)methyl]-5-[5-(trifluoromethyl)-4H-1,2,4-triazol-3-yl]pyridin-3-yl}methyl)cyclopropane-1-carbonitrile] registered an EC50 of less than 1 nM.

Consider `C[C@]1(c2ccc(Cl)cc2F)Oc2cccc(C3CCN(Cc4ncc(-c5nnc(C(F)(F)F)[nH]5)cc4C#N)CC3)c2O1` [Example 93], for which the concentration for a half-maximal effect (EC50) lay within 1 to 100 nM.

Compound `Cc1cc(CN2CCC(c3cccc4c3OC(C)(c3ccc(Cl)cc3F)O4)CC2)ncc1-c1nnn[nH]1` (stereo not shown) [Example 96] came in with a 50% effective concentration (EC50) greater than 100 nM.

In the case of `CC(c1cc(-c2nnc(C(F)(F)F)[nH]2)cnc1CN1CCC(c2cccc3c2O[C@@](C)(c2ccc(Cl)cc2F)O3)CC1)S(C)(=O)=O` (stereo partly drawn) [Example 60, 2-((4-((S)-2-(4-chloro-2-fluorophenyl)-2-methylbenzo[d][1,3]dioxol-4-yl)piperidin-1-yl)methyl)-3-(1-(methylsulfonyl)ethyl)-5-(5-(trifluoromethyl)-4H-1,2,4-triazol-3-yl)pyridine], the half-maximal effective concentration (EC50) was in the range of 1 to 100 nM.

The compound `Cc1nc(-c2cnc(CN3CCC(c4cccc5c4OC(C)(c4ccc(Cl)cc4F)O5)CC3)c(C)c2)no1` (stereo not shown) [Example 97] displayed an EC50 greater than 100 nM.

`Cc1cc(-c2noc(=O)[nH]2)cnc1CN1CCC(c2cccc(OCc3ccc(Cl)cc3F)n2)CC1` [Example 95] yielded a half-maximal effective concentration (EC50) greater than 100 nM.

As to `CC1(c2ccc(Cl)cc2F)Oc2cccc(C3CCN(Cc4ncc(-c5nnc(C(F)(F)F)[nH]5)cc4CC4(C#N)CC4)CC3(F)F)c2O1` (stereo not shown) [Example 22, 1-{[2-({4-[2-(4-chloro-2-fluorophenyl)-2-methyl-2H-1,3-benzodioxol-4-yl]-3,3-difluoropiperidin-1-yl}methyl)-5-[5-(trifluoromethyl)-4H-1,2,4-triazol-3-yl]pyridin-3-yl]methyl}cyclopropane-1-carbonitrile], the EC50 is less than 1 nM.

The compound `N#CC1(Cc2cc(-c3nnc(C(F)(F)F)[nH]3)cnc2CN2CC=C(c3cccc(OCc4ccc(Cl)cc4F)n3)CC2)CC1` [Example 47, 1-{[2-({6-[(4-chloro-2-fluorophenyl)methoxy]-1′,2′,3′,6′-tetrahydro-[2,4′-bipyridin]-1′-yl}methyl)-5-[5-(trifluoromethyl)-4H-1,2,4-triazol-3-yl]pyridin-3-yl]methyl}cyclopropane-1-carbonitrile] registered a half-maximal effective concentration (EC50) of less than 1 nM.

The compound `Cc1nc(-c2nnc(C(F)(F)F)[nH]2)cnc1CN1CCC(c2cccc3c2O[C@@](C)(c2ccc(Cl)cc2F)O3)CC1` [Example 52, 2-({4-[(2S)-2-(4-chloro-2-fluorophenyl)-2-methyl-1,3-benzodioxol-4-yl]piperidin-1-yl}methyl)-3-methyl-5-[5-(trifluoromethyl)-4H-1,2,4-triazol-3-yl]pyrazine] returned a concentration giving a half-maximal response (EC50) of 1 to 100 nM.

For the compound `C[C@]1(c2ccc(Cl)cc2F)Oc2cccc(C3CCN(Cc4ncc(-c5nnc(C(F)(F)F)[nH]5)cc4CS(C)(=O)=O)CC3)c2O1` [Example 55, 2-({4-[(2S)-2-(4-chloro-2-fluorophenyl)-2-methyl-2H-1,3-benzodioxol-4-yl]piperidin-1-yl}methyl)-3-(methanesulfonylmethyl)-5-[5-(trifluoromethyl)-4H-1,2,4-triazol-3-yl]pyridine], the EC50 was less than 1 nM.

`C[C@]1(c2ccc(Cl)cn2)Oc2cccc(C3CCN(Cc4ncc(-c5nnn[nH]5)cc4CC4(C#N)CC4)CC3)c2O1` [Example 75] gave an EC50 of less than 1 nM.

In the case of `CC1(c2ccc(Cl)cc2Cl)Oc2cccc(C3CCN(Cc4ncc(-c5nnc(C(F)(F)F)[nH]5)cc4CC4(C#N)CC4)CC3)c2O1` (single isomer, unassigned) [Example 3, 1-{[2-({4-[2-(2,4-dichlorophenyl)-2-methyl-2H-1,3-benzodioxol-4-yl]piperidin-1-yl}methyl)-5-[5-(trifluoromethyl)-4H-1,2,4-triazol-3-yl]pyridin-3-yl]methyl}cyclopropane-1-carbonitrile], the EC50 is less than 1 nM.

For `N#CC1(Cc2cc(-c3nnc(C(F)(F)F)[nH]3)cnc2CN2CC=C(c3ccc(F)c(OCc4ccc(Cl)cc4F)c3)CC2)CC1` [Example 48, 1-({2-[(4-{3-[(4-chloro-2-fluorophenyl)methoxy]-4-fluorophenyl}-1,2,3,6-tetrahydropyridin-1-yl)methyl]-5-[5-(trifluoromethyl)-4H-1,2,4-triazol-3-yl]pyridin-3-yl}methyl)cyclopropane-1-carbonitrile], the half-maximal effective concentration (EC50) lay within 1 to 100 nM.

Regarding `N#CC1(Cc2cc(-c3nnc(C(F)(F)F)[nH]3)cnc2CN2CCC(c3ccc(F)c(OCc4ccc(Cl)c5ccoc45)n3)CC2)CC1` [Example 63, 1-((2-((4-(6-((4-chlorobenzofuran-7-yl)methoxy)-5-fluoropyridin-2-yl)piperidin-1-yl)methyl)-5-(5-(trifluoromethyl)-4H-1,2,4-triazol-3-yl)pyridin-3-yl)methyl)cyclopropane-1-carbonitrile], the EC50 is less than 1 nM.

(Values after patent US20250145596A1, “HETEROCYCLIC GLP-1 AGONISTS” (Gasherbrum Bio, Inc., priority 2022, published 2025).)
